Measured values as given in patent publication US20120171123A1, “USES AND COMPOSITIONS FOR TREATMENT OF RHEUMATOID ARTHRITIS” (priority 2006, published 2012).

System: patients with long-standing RA
Assay: Study 4: DAS28, clinical remission and sustained remission
Assay type: in vivo, human
Excerpt: DAS28 represents disease activity, taking into consideration the TJC 28, SJC 28, CRP, and patient general health (based on VAS of 100 mm) (see Prevoo et al. (1995) Arthritis Rheum 38:44-48 and Van Gestel et al. (1999) J Rheumatol 26:705-711, each of which is incorporated by reference herein). DAS28 scores greater than or equal to 5.1 represent severe activity disease activity, less than 5.1 to 3.2 indicate moderate disease activity, less than 3.2 to 2.6 indicate low disease activity, and scores below 2.6 represent remission. At the end of the fourth year, the median DAS28 score was 2.7 (low disease activity). […] The largest increase in percentage of patients in clinical remission was seen between months 0-6, where an increase in the percentage of patients in remission went from 0% at month 0 to about 27% at month 6.
The rates of sustained remission and time to remission were consistent across durations of the disease. Remission rates were defined as greater than or equal to 6 months by baseline disease duration. Rates of sustained remission and time to remission are described below in Table 16.
Remission rates were defined as greater than or equal to 6 months by baseline disease duration.
Efficacy outcomes were evaluated as observed data: DAS28; ACR 20/50/70; Tender Joint Count (TJC); Swollen Joint Count (SJC); and HAQ Disability Index. Baseline demographics and disease characteristics were similar in both Study 4 and Study 5 consistent with moderate to severe RA, as shown below in Table 64: […]

For “adalimumab: human anti-TNF mAb (HUMIRA, Abbott Laboratories), described in U.S. Pat. No. 6,090,382 as D2E7”, the “DAS28, % change of mean clinical improvement from baseline” value (from here on “DAS28, % change”) (6 months of exposure) was 39%, the “DAS28, % change” value (12 months) was 44% and the “DAS28, % change” value (24 months) was 45%. For the same substance, the “DAS28, % change” value (36 months) was 47%, the “DAS28, % change” value (48 months) was 50% and the “patients in clinical remission (DAS28<2.6)” value (48 months) was 49%. The “patients achieving clinical remission (DAS28<2.6)” value (Year 5) was “Over 40%”, the “Months in remission (mean)” value (baseline DAS28 < 5.1) was 27 months and the “Months until remission (mean)” value (baseline DAS28 < 5.1) was 8 months. The “patients with sustained remission (≧6 months)” value (from here on “patients … (≧6 months)”) (baseline DAS28 < 5.1) was “(n = 105, 50%*)”, the “Months in remission (mean)” value (baseline DAS28 ≧ 5.1) was 23 months and the “Months until remission (mean)” value (baseline DAS28 ≧ 5.1) was 11 months. The “patients … (≧6 months)” value (baseline DAS28 ≧ 5.1) was “(n = 140, 22%**)”, the “% of visits with ACR70 during remission” value (disease duration >2 years) was 64% and the “% of visits with CRP <10 mg/L during remission” value (disease duration >2 years) was 95%. For the same substance, the “% of visits with SJC = 0 during remission” value (disease duration >2 years) was 54%, the “% of visits with TJC = 0 during remission” value (disease duration >2 years) was 70% and the “Months in remission (mean)” value (disease duration >2 years) was 25 months. The “Months until remission (mean)” value (disease duration >2 years) was 10 months, the “patients … (≧6 months)” value (disease duration at entry >2 years) was “(n = 209, 29%*)” and the “patients … (≧6 months)” value (disease duration at entry ≦2 years) was “(n = 36, 31%*)”. The “% of visits with ACR70 during remission” value (disease duration ≦2 years) was 71%, the “% of visits with CRP <10 mg/L during remission” value (disease duration ≦2 years) was 94% and the “% of visits with SJC = 0 during remission” value (disease duration ≦2 years) was 64%. For the same substance, the “% of visits with TJC = 0 during remission” value (disease duration ≦2 years) was 77%, the “Months in remission (mean)” value (disease duration ≦2 years) was 25 months and the “Months until remission (mean)” value (disease duration ≦2 years) was 10 months. For the same substance, the “median DAS28 score” value (end of fourth year) was 2.7 and the “patients in clinical remission (DAS28<2.6)” value (month 6) was “about 27%”.
